Test results as given in patent publication US20250205344A1, “2,4-DIOXOTETRAHYDROPYRIMIDINYL DERATIVES AS DEGRONS IN PROTACS” (GLAXOSMITHKLINE INTELLECTUAL PROPERTY DEVELOPMENT LIMITED, priority 2022, published 2025).
Where a name gives a salt, the structure may show the parent alone.

Molecular target: T1, Androgen Receptor (Homo sapiens, UniProt P10275, T878A)
T1 construct: the AR gene was modified, using CRISPR/Cas9 editing, so the expressed AR protein included an 11 amino acid HiBiT tag; endogenous in cells; host or cells: clonal LnCaP-derived line, AR gene edited by CRISPR/Cas9
T1 sequence (P10275 whole entry T878A): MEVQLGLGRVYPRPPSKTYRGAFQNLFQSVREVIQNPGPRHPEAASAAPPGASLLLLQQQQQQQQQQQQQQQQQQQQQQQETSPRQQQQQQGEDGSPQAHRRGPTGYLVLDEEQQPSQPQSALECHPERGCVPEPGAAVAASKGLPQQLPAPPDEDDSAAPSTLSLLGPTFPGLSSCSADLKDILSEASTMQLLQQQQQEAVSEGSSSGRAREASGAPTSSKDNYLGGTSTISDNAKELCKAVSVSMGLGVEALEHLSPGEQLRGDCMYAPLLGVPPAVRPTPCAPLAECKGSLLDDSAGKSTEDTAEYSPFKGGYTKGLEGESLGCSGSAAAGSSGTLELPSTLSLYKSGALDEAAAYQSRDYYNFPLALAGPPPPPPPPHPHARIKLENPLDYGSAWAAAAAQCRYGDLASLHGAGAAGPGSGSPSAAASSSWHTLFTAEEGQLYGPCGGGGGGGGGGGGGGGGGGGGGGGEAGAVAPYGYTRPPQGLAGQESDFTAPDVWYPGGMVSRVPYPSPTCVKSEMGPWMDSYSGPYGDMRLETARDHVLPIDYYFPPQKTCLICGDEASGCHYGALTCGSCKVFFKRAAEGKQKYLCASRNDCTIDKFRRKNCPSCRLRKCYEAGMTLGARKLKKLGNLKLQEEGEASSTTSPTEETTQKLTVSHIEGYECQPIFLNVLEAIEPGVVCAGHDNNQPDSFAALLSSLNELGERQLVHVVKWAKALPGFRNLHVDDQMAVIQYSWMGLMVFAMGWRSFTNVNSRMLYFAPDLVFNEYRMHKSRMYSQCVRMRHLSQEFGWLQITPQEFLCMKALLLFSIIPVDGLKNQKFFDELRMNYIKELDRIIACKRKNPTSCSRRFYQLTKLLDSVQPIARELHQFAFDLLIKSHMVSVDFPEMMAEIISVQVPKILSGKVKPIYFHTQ
T1 sequence (Q96SW2 whole entry partner): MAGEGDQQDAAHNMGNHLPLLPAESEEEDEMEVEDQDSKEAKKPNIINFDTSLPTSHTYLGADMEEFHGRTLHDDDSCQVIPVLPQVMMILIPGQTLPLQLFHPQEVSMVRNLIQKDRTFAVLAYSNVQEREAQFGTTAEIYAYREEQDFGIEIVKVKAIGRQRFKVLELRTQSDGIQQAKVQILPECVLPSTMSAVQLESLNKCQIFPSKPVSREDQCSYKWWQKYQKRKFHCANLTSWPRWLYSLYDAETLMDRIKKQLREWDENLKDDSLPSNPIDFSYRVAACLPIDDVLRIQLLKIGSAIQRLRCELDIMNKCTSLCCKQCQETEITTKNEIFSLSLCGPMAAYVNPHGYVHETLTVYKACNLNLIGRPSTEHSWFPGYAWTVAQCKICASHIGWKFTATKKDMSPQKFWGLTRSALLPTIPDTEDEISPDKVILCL
T1 sequence (Q16531 whole entry partner): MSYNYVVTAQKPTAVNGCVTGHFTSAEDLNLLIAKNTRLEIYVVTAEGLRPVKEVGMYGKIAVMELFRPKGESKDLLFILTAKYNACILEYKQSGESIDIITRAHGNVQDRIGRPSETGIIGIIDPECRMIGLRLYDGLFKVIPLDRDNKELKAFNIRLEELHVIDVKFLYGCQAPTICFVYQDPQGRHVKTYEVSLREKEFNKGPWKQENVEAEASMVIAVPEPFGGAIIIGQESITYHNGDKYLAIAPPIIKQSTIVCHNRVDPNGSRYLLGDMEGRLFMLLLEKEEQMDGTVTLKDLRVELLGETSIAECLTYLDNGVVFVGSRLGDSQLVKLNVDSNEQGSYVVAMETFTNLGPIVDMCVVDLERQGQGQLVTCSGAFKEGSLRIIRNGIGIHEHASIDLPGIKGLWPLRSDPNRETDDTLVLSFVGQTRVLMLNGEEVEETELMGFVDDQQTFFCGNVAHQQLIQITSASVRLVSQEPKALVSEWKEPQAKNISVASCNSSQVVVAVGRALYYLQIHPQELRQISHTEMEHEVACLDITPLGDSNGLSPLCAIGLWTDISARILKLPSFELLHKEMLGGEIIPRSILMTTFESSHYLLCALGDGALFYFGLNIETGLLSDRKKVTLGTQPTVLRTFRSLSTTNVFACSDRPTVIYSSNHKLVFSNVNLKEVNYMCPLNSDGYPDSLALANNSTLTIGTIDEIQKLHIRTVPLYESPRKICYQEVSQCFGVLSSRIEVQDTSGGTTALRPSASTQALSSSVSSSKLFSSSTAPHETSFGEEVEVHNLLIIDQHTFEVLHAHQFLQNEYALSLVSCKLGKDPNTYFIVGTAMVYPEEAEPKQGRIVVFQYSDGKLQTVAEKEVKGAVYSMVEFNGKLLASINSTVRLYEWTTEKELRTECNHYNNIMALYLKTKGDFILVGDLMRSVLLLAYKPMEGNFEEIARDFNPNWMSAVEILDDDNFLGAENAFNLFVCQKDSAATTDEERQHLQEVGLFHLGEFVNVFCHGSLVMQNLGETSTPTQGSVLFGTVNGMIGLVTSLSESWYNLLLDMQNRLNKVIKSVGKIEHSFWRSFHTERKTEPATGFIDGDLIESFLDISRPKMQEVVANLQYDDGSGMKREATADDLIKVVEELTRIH
Assay: Androgen Receptor Degradation Assay (Nano-Glo HiBiT)
Type: cell-based
Conditions: LNCaP, 18 h, HiBiT-tagged AR in human LnCaP cells, read-out: mean asymptote max
How it was run: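 LnCaP cells with CRISPR-knocked-in N-terminal HiBiT-tagged AR (10,000/well) treated 18 h at 37 °C with PROTACs over 11 threefold concentrations; lytic HiBiT luminescence normalised to DMSO (0%) and cell-free (100%) controls. Relative DC50 = 4-parameter fit inflection; absolute DC50 = 50% degradation interpolation; Dmax = maximum observed degradation.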

Row | Compound | Dmax
1 | CC1(C)[C@H](NC(=O)c2ccc(N3CCC(CN4CCC(n5ccc6c(N7CCC(=O)NC7=O)cncc65)CC4)CC3)nn2)C(C)(C)[C@H]1Oc1ccc(C#N)c(Cl)c1 [EAR56, N-((1r,3r)-3-(3-Chloro-4-cyanophenoxy)-2,2,4,4-tetramethylcyclobutyl)-6-(4-((4-(4-(2,4-dioxotetrahydropyrimidin-1(2H)-yl)-1H-pyrrolo[2,3-c]pyridin-1-yl)piperidin-1-yl)methyl)piperidin-1-yl)pyridazine-3-carboxamide] | ≥ 50%
2 | N#Cc1ccc(O[C@H]2CC[C@H](NC(=O)c3ccc(N4CCC(CCN5CCC(n6ccc7c(N8CCC(=O)NC8=O)cccc76)CC5)CC4)nn3)CC2)cc1Cl [EAR57, N-((1r,4r)-4-(3-Chloro-4-cyanophenoxy)cyclohexyl)-6-(4-(2-(4-(4-(2,4-dioxotetrahydropyrimidin-1(2H)-yl)-1H-indol-1-yl)piperidin-1-yl)ethyl)piperidin-1-yl)pyridazine-3-carboxamide hydrochloride] | ≥ 50%
3 | CC(C)n1ccc2c(N3CCC(=O)NC3=O)cc(C(=O)N3CCN(CCCOc4ccc(C(=O)N[C@H]5CC[C@H](Oc6ccc(C#N)c(Cl)c6)CC5)nc4)CC3)cc21 [EAR59, N-((1r,4r)-4-(3-Chloro-4-cyanophenoxy)cyclohexyl)-5-(3-(4-(4-(2,4-dioxotetrahydropyrimidin-1(2H)-yl)-1-isopropyl-1H-indole-6-carbonyl)piperazin-1-yl)propoxy)picolinamide] | ≥ 50%
4 | CC(C)n1ccc2c(N3CCC(=O)NC3=O)cc(C(=O)N(C)CC3CCN(CCCOc4ccc(C(=O)N[C@H]5CC[C@H](Oc6ccc(C#N)c(Cl)c6)CC5)nc4)CC3)cc21 [EAR61, N-((1-(3-((6-(((1r,4r)-4-(3-Chloro-4-cyanophenoxy)cyclohexyl)carbamoyl)pyridin-3-yl)oxy)propyl)piperidin-4-yl)methyl)-4-(2,4-dioxotetrahydropyrimidin-1(2H)-yl)-1-isopropyl-N-methyl-1H-indole-6-carboxamide] | ≥ 50%
5 | N#Cc1ccc(O[C@H]2CC[C@H](NC(=O)c3ccc(OCCCN4CCC(n5ccc6c(N7CCC(=O)NC7=O)cccc65)CC4)cn3)CC2)cc1Cl [EAR62, N-((1r,4r)-4-(3-Chloro-4-cyanophenoxy)cyclohexyl)-5-(3-(4-(4-(2,4-dioxotetrahydropyrimidin-1(2H)-yl)-1H-indol-1-yl)piperidin-1-yl)propoxy)picolinamide] | ≥ 50%
6 | CC(C)n1ccc2c(N3CCC(=O)NC3=O)cc(C(=O)N(C)C3CCN(CCCCOc4ccc(C(=O)N[C@H]5CC[C@H](Oc6ccc(C#N)c(Cl)c6)CC5)nc4)CC3)cc21 [EAR64, N-(1-(4-((6-(((1r,4r)-4-(3-Chloro-4-cyanophenoxy)cyclohexyl)carbamoyl)pyridin-3-yl)oxy)butyl)piperidin-4-yl)-4-(2,4-dioxotetrahydropyrimidin-1(2H)-yl)-1-isopropyl-N-methyl-1H-indole-6-carboxamide] | ≥ 50%
7 | CC(C)n1ccc2c(N3CCC(=O)NC3=O)cc(C(=O)N(C)CC3CCN(CCCCOc4ccc(C(=O)N[C@H]5CC[C@H](Oc6ccc(C#N)c(Cl)c6)CC5)nc4)CC3)cc21 [EAR65, N-((1-(4-((6-(((1r,4r)-4-(3-Chloro-4-cyanophenoxy)cyclohexyl)carbamoyl)pyridin-3-yl)oxy)butyl)piperidin-4-yl)methyl)-4-(2,4-dioxotetrahydropyrimidin-1(2H)-yl)-1-isopropyl-N-methyl-1H-indole-6-carboxamide] | ≥ 50%
8 | N#Cc1ccc(O[C@H]2CC[C@H](NC(=O)c3ccc(OCCCCN4CCC(n5ccc6c(N7CCC(=O)NC7=O)cccc65)CC4)cn3)CC2)cc1Cl [EAR66, N-((1r,4r)-4-(3-chloro-4-cyanophenoxy)cyclohexyl)-5-(4-(4-(4-(2,4-dioxotetrahydropyrimidin-1(2H)-yl)-1H-indol-1-yl)piperidin-1-yl)butoxy)picolinamide] | ≥ 50%
9 | N#Cc1ccc(O[C@H]2CC[C@H](NC(=O)c3cnc(N4CCC(C(=O)N5CCC(n6ccc7c(N8CCC(=O)NC8=O)cccc76)CC5)CC4)nc3)CC2)cc1C(F)(F)F [EAR68, N-((1r,4r)-4-(4-Cyano-3-(trifluoromethyl)phenoxy)cyclohexyl)-2-(4-(4-(4-(2,4-dioxotetrahydropyrimidin-1(2H)-yl)-1H-indol-1-yl)piperidine-1-carbonyl)piperidin-1-yl)pyrimidine-5-carboxamide] | ≥ 50%
10 | N#Cc1ccc(O[C@H]2CC[C@H](NC(=O)c3cnc(N4CCC(C(=O)N5CCC(n6ccc7c(N8CCC(=O)NC8=O)cccc76)CC5)CC4)nc3)CC2)cc1Cl [EAR69, N-((1r,4r)-4-(3-Chloro-4-cyanophenoxy)cyclohexyl)-2-(4-(4-(4-(2,4-dioxotetrahydropyrimidin-1(2H)-yl)-1H-indol-1-yl)piperidine-1-carbonyl)piperidin-1-yl)pyrimidine-5-carboxamide] | ≥ 50%
11 | N#Cc1ccc(O[C@H]2CC[C@H](NC(=O)c3ccc(N4CC(CN5CCC(n6ccc7c(N8CCC(=O)NC8=O)cccc76)CC5)C4)nn3)CC2)cc1Cl [EAR72, N-((1r,4r)-4-(3-Chloro-4-cyanophenoxy)cyclohexyl)-6-(3-((4-(4-(2,4-dioxotetrahydropyrimidin-1(2H)-yl)-1H-indol-1-yl)piperidin-1-yl)methyl)azetidin-1-yl)pyridazine-3-carboxamide hydrochloride] | ≥ 50%
12 | CC(C)n1ccc2c(N3CCC(=O)NC3=O)cc(C(=O)NCCOCCN3CCN(c4ccc(C(=O)N[C@H]5CC[C@H](Oc6ccc(C#N)c(Cl)c6)CC5)nn4)CC3)cc21 [EAR76, N-(2-(2-(4-(6-(((1r,4r)-4-(3-Chloro-4-cyanophenoxy)cyclohexyl)carbamoyl)pyridazin-3-yl)piperazin-1-yl)ethoxy)ethyl)-4-(2,4-dioxotetrahydropyrimidin-1(2H)-yl)-1-isopropyl-1H-indole-6-carboxamide] | ≥ 50%
13 | CC(C)n1ccc2c(N3CCC(=O)NC3=O)cc(C(=O)N3CCN(c4ccc(C(=O)N[C@H]5CC[C@H](Oc6ccc(C#N)c(Cl)c6)CC5)nn4)CC3)cc21 [EAR77, N-((1r,4r)-4-(3-Chloro-4-cyanophenoxy)cyclohexyl)-6-(4-(4-(2,4-dioxotetrahydropyrimidin-1(2H)-yl)-1-isopropyl-1H-indole-6-carbonyl)piperazin-1-yl)pyridazine-3-carboxamide] | ≥ 50%
14 | CC(C)n1ccc2c(N3CCC(=O)NC3=O)cc(C(=O)N3CCN(CC4CCN(c5ccc(C(=O)N[C@H]6C(C)(C)[C@H](Oc7ccc(C#N)c(Cl)c7)C6(C)C)nn5)CC4)CC3)cc21 [EAR78, N-((1r,3r)-3-(3-Chloro-4-cyanophenoxy)-2,2,4,4-tetramethylcyclobutyl)-6-(4-((4-(4-(2,4-dioxotetrahydropyrimidin-1(2H)-yl)-1-isopropyl-1H-indole-6-carbonyl)piperazin-1-yl)methyl)piperidin-1-yl)pyridazine-3-carboxamide] | ≥ 50%
15 | CC(C)n1ccc2c(N3CCC(=O)NC3=O)cc(C(=O)N3CCN(CC4CCN(c5ccc(C(=O)N[C@H]6CC[C@H](Oc7ccc(C#N)c(Cl)c7)CC6)cn5)CC4)CC3)cc21 [EAR80, N-((1r,4r)-4-(3-Chloro-4-cyanophenoxy)cyclohexyl)-6-(4-((4-(4-(2,4-dioxotetrahydropyrimidin-1(2H)-yl)-1-isopropyl-1H-indole-6-carbonyl)piperazin-1-yl)methyl)piperidin-1-yl)nicotinamide] | ≥ 50%
16 | CC(C)n1ccc2c(N3CCC(=O)NC3=O)cc(C(=O)N3CCC4(CCCN(Cc5ccc(C(=O)N[C@H]6CC[C@H](Oc7ccc(C#N)c(Cl)c7)CC6)cc5)C4)CC3)cc21 [EAR81, N-((1r,4r)-4-(3-Chloro-4-cyanophenoxy)cyclohexyl)-4-((9-(4-(2,4-dioxotetrahydropyrimidin-1(2H)-yl)-1-isopropyl-1H-indole-6-carbonyl)-2,9-diazaspiro[5.5]undecan-2-yl)methyl)benzamide] | ≥ 50%
17 | CC(C)n1ccc2c(N3CCC(=O)NC3=O)cc(C(=O)N3CCC4(CCCN(CCCCCc5ccc(C(=O)N[C@H]6CC[C@H](Oc7ccc(C#N)c(Cl)c7)CC6)cc5)C4)CC3)cc21 [EAR83, N-((1r,4r)-4-(3-Chloro-4-cyanophenoxy)cyclohexyl)-4-(5-(9-(4-(2,4-dioxotetrahydropyrimidin-1(2H)-yl)-1-isopropyl-1H-indole-6-carbonyl)-2,9-diazaspiro[5.5]undecan-2-yl)pentyl)benzamide] | ≥ 50%
18 | CC(C)n1ccc2c(N3CCC(=O)NC3=O)cc(C(=O)N3CCC4(CCN(Cc5ccc(C(=O)N[C@H]6CC[C@H](Oc7ccc(C#N)c(Cl)c7)CC6)cc5)CC4)CC3)cc21 [EAR84, N-((1r,4r)-4-(3-Chloro-4-cyanophenoxy)cyclohexyl)-4-((9-(4-(2,4-dioxotetrahydropyrimidin-1(2H)-yl)-1-isopropyl-1H-indole-6-carbonyl)-3,9-diazaspiro[5.5]undecan-3-yl)methyl)benzamide] | ≥ 50%
19 | CC(C)n1ccc2c(N3CCC(=O)NC3=O)cc(C(=O)N3CCC4(CCN(CCCc5ccc(C(=O)N[C@H]6CC[C@H](Oc7ccc(C#N)c(Cl)c7)CC6)cc5)CC4)CC3)cc21 [EAR85, N-((1r,4r)-4-(3-Chloro-4-cyanophenoxy)cyclohexyl)-4-(3-(9-(4-(2,4-dioxotetrahydropyrimidin-1(2H)-yl)-1-isopropyl-1H-indole-6-carbonyl)-3,9-diazaspiro[5.5]undecan-3-yl)propyl)benzamide] | ≥ 50%
20 | CC(C)n1ccc2c(N3CCC(=O)NC3=O)cc(C(=O)N3CCCC34CCN(CCCCCCc3ccc(C(=O)N[C@H]5CC[C@H](Oc6ccc(C#N)c(Cl)c6)CC5)cc3)CC4)cc21 [EAR86, N-((1r,4r)-4-(3-Chloro-4-cyanophenoxy)cyclohexyl)-4-(6-(1-(4-(2,4-dioxotetrahydropyrimidin-1(2H)-yl)-1-isopropyl-1H-indole-6-carbonyl)-1,8-diazaspiro[4.5]decan-8-yl)hexyl)benzamide] | ≥ 50%
